Assay results reported in patent US7524853B2 (Solvay Pharmaceuticals B.V., priority 2003, dated 2009).

What was measured:
Format in all cases: cell-based
[1] = biological target: T1, 17β-hydroxysteroid dehydrogenase type 2 (17β-HSD type 2) (Homo sapiens, UniProt P37059); test: Inhibition of 17β-HSD type 2 in MCF-7 cells stably expressing the isoenzyme (tritium labeled estradiol conversion, HPLC); conditions: MCF7, MCF-7 cells expressing 17β-HSD type 2, 2 nM tritium labeled estradiol; for inhibition at 1 µM: 1 μM test compound, read-out: % Inhibition HSD2 1 μM; for inhibition at 10 µM: 10 μM test compound, read-out: % Inhibition HSD2 10 μM
T1 construct: expressed in transfected cells; host or cells: MCF-7
T1 sequence (P37059 1-387): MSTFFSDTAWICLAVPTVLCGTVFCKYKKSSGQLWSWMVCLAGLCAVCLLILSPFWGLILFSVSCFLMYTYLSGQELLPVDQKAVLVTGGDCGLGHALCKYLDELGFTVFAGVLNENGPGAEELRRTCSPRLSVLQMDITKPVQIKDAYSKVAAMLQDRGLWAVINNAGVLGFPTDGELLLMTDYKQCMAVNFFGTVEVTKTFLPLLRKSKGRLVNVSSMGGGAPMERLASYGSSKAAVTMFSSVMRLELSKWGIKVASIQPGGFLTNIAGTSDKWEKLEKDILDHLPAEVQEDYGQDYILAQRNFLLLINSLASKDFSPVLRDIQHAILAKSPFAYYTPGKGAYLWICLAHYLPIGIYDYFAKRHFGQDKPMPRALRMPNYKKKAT
Outline: (§1)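 Cells: stable MCF-7 transfectants per isoenzyme. Step one, add compound (two concentrations) plus 2 nM labelled substrate to growth medium. Step two, remove medium at a set time and stop with trichloroacetic acid. Step three, quantify conversion by HPLC with flow scintillation.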

[2] = biological target: T2, 17β-hydroxysteroid dehydrogenase type 3 (17β-HSD type 3) (Homo sapiens, UniProt P37058); test: Inhibition of 17β-HSD type 3 in MCF-7 cells stably expressing the isoenzyme (tritium labeled androstenedione conversion, HPLC); conditions: MCF7, MCF-7 cells expressing 17β-HSD type 3, 2 nM tritium labeled androstenedione; for inhibition at 1 µM: 1 μM test compound, read-out: % Inhibition HSD3 1 μM; for inhibition at 10 µM: 10 μM test compound, read-out: % Inhibition HSD3 10 μM
T2 construct: expressed in transfected cells; host or cells: MCF-7
T2 sequence (P37058 1-310): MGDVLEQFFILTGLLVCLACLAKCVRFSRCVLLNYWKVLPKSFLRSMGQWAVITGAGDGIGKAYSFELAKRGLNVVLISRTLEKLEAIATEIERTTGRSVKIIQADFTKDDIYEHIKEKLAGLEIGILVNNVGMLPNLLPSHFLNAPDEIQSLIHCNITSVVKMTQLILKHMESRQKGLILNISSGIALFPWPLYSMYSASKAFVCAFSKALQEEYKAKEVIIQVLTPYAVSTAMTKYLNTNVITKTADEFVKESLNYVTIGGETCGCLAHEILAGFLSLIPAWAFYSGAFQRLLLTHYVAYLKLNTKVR
Outline: as §1

[3] = biological target: T3, 17β-hydroxysteroid dehydrogenase type 1 (17β-HSD type 1) (Homo sapiens, UniProt P14061); test: Inhibition of 17β-HSD type 1 in MCF-7 cells stably expressing the isoenzyme (tritium labeled estrone conversion, HPLC); conditions: MCF7, MCF-7 cells expressing 17β-HSD type 1, 2 nM tritium labeled estrone; for inhibition at 1 µM: 1 μM test compound, read-out: % Inhibition HSD1 1 μM; for inhibition at 10 µM: 10 μM test compound, read-out: % Inhibition HSD1 10 μM
T3 construct: expressed in transfected cells; host or cells: MCF-7
T3 sequence (P14061 1-328): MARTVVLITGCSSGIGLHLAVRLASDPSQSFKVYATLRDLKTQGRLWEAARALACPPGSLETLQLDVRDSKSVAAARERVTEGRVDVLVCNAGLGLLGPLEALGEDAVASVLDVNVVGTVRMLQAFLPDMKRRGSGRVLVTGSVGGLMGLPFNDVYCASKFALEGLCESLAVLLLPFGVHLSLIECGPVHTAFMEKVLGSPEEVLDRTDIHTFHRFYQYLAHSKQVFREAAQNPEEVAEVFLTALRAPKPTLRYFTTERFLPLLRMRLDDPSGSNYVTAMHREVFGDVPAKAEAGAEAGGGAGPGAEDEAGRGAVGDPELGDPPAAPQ
Outline: as §1

inhibition at 1 µM [1]	inhibition at 10 µM [1]	inhibition at 1 µM [2]	inhibition at 10 µM [2]	inhibition at 1 µM [3]	inhibition at 10 µM [3]	SMILES
16.1%	22%	4%	11.3%	15.5%	24.7%	CCCCn1c(-c2cc(OC)c(OC)c(OC)c2)nc2sc3c(O)c(Br)ccc3c2c1=O [No. 90, 7-Bromo-3-butyl-8-hydroxy-2-(3,4,5-trimethoxyphenyl)-3H-benzo[4,5]thieno[2,3-d]pyrimidin-4-one]
18.1%	18.2%	5.2%	16.8%	15%	5.7%	CCCCn1c(-c2cc(OC)c(OC)c(OC)c2Br)nc2sc3c(c2c1=O)CC(C)C(Br)C3=O (stereo not drawn) [No. 693, 3-Butyl-7-bromo-6-methyl-2-(2-bromo-3,4,5-trimethoxyphenyl)-6,7-dihydro-3H-benzo[4,5]thieno[2,3-d]pyrimidin-4,8-dione]
-0.8%	12.7%	-4.8%	6.4%	-1.8%	-4.4%	COc1ccc(-c2nc3sc4c(Oc5ccccc5)c(C)ccc4c3c(=O)n2Cc2ccccc2)cc1 [No. 21, 3-Benzyl-7-methyl-2-(p-methoxyphenyl)-8-phenoxy-3H-benzo[4,5]thieno[2,3-d]pyrimidin-4-one]
11.7%	19.8%	10.9%	21%	34.7%	49.9%	CCC(C)Cn1c(-c2cc(OC)c(OC)c(OC)c2)nc2sc3c(c2c1=O)CCCC3 (stereo not drawn) [No. 125, 3-(2-Methylbutyl)-2-(3,4,5-trimethoxyphenyl)-5,6,7,8-tetrahydro-3H-benzo[4,5]thieno[2,3-d]pyrimidin-4-one]

More lines, now with the values behind:

SMILES	inhibition at 1 µM [1]	inhibition at 10 µM [1]	inhibition at 1 µM [2]	inhibition at 10 µM [2]	inhibition at 1 µM [3]	inhibition at 10 µM [3]
CCSC1=C(C=O)CCc2c1sc1nc(-c3cc(OC)c(OC)c(OC)c3)n(Cc3ccccc3)c(=O)c21 [No. 6, 3-Benzyl-8-ethylsulfanyl-4-oxo-2-(3,4,5-trimethoxyphenyl)-3,4,5,6-tetrahydro-benzo[4,5]thieno[2,3-d]pyrimidine-7-carbaldehyde]	3.8%	29.7%	2.1%	47.1%	31.8%	44.2%
COc1cc(-c2nc3sc4c(O)ccc(C)c4c3c(=O)n2Cc2ccccc2)c(Br)c(OC)c1OC [No. 686, 3-Benzyl-2-(2-bromo-3,4,5-trimethoxyphenyl)-8-hydroxy-5-methyl-3H-benzo[4,5]thieno[2,3-d]pyrimidin-4-one]	2.1%	4.3%	-1.1%	7.1%	2.1%	15%
COc1c(O)cc(-c2nc3sc4c(c3c(=O)n2-c2ccccc2)CCCC4)cc1O [No. 42, 3-Phenyl-2-(3,5-dihydroxy-4-methoxyphenyl)-5,6,7,8-tetrahydro-3H-benzo[4,5]thieno[2,3-d]pyrimidin-4-one]	-1.9%	-0.5%	3.2%	4%	26.8%	56%
COc1cc(-c2nc3sc4c(c3c(=O)n2CC(C)C)C(Br)CCC4=O)cc(OC)c1OC (stereo not drawn) [No. 135, 5-Bromo-3-isobutyl-2-(3,4,5-trimethoxyphenyl)-6,7-dihydro-3H,5H-benzo[4,5]thieno[2,3-d]pyrimidine-4,8-dione]	19.1%	34.6%	21.8%	93.1%	54%	96.6%
